In ChEMBL document CHEMBL4765467, “Improving Thermodynamic Stability and Anticoagulant Activity of a Thrombin Binding Aptamer by Incorporation of 8-trifluoromethyl-2'-deoxyguanosine” (J Med Chem, 2021):

Legend:
[1] = system: Plasma; test: Anticoagulant activity in human plasma assessed prothrombin time at 0.25 to 1 uM; format: functional; settings: dose 0.25-1 µM
[2] = Thermodynamic stability assessed as change in melting temperature by CD spectroscopy relative to TBA; format: physicochemical
[3] = Stability in 50% human plasma assessed as compound degradation at 50 uM measured within 3 hrs by PAGE analysis; format: ADME, cell-free

| deltaTm [2] | Stabilty [3] | SMILES | PT [1] |
| --- | --- | --- | --- |
| 8.1 °C | Unstable | Cc1cn([C@H]2C[C@H](OP(=O)(O)OC[C@H]3O[C@@H](n4cnc5c(=O)[nH]c(N)nc54)C[C@@H]3OP(=O)(O)OC[C@H]3O[C@@H](n4cnc5c(=O)[nH]c(N)nc54)C[C@@H]3O)[C@@H](COP(=O)(O)O[C@H]3C[C@H](n4cc(C)c(=O)[nH]c4=O)O[C@@H]3COP(=O)(O)O[C@H]3C[C@H](n4cnc5c(=O)[nH]c(N)nc54)O[C@@H]3COP(=O)(O)O[C@H]3C[C@H](n4cnc5c(=O)[nH]c(N)nc54)O[C@@H]3COP(=O)(O)O[C@H]3C[C@H](n4cc(C)c(=O)[nH]c4=O)O[C@@H]3COP(=O)(O)O[C@H]3C[C@H](n4cnc5c(=O)[nH]c(N)nc54)O[C@@H]3COP(=O)(O)O[C@H]3C[C@H](n4cc(C)c(=O)[nH]c4=O)O[C@@H]3COP(=O)(O)O[C@H]3C[C@H](n4cnc5c(=O)[nH]c(N)nc54)O[C@@H]3COP(=O)(O)O[C@H]3C[C@H](n4c(C(F)(F)F)nc5c(=O)[nH]c(N)nc54)O[C@@H]3COP(=O)(O)O[C@H]3C[C@H](n4cc(C)c(=O)[nH]c4=O)O[C@@H]3COP(=O)(O)O[C@H]3C[C@H](n4cc(C)c(=O)[nH]c4=O)O[C@@H]3COP(=O)(O)O[C@H]3C[C@H](n4cnc5c(=O)[nH]c(N)nc54)O[C@@H]3COP(=O)(O)O[C@H]3C[C@H](n4cnc5c(=O)[nH]c(N)nc54)O[C@@H]3COP(=O)(O)O)O2)c(=O)[nH]c1=O | 26 s |
| 7.6 °C | Unstable | Cc1cn([C@H]2C[C@H](OP(=O)(O)OC[C@H]3O[C@@H](n4cnc5c(=O)[nH]c(N)nc54)C[C@@H]3OP(=O)(O)OC[C@H]3O[C@@H](n4cnc5c(=O)[nH]c(N)nc54)C[C@@H]3OP(=O)(O)OC[C@H]3O[C@@H](n4cc(C)c(=O)[nH]c4=O)C[C@@H]3OP(=O)(O)OC[C@H]3O[C@@H](n4cnc5c(=O)[nH]c(N)nc54)C[C@@H]3OP(=O)(O)OC[C@H]3O[C@@H](n4cc(C)c(=O)[nH]c4=O)C[C@@H]3OP(=O)(O)OC[C@H]3O[C@@H](n4c(C(F)(F)F)nc5c(=O)[nH]c(N)nc54)C[C@@H]3OP(=O)(O)OC[C@H]3O[C@@H](n4cnc5c(=O)[nH]c(N)nc54)C[C@@H]3OP(=O)(O)OC[C@H]3O[C@@H](n4cc(C)c(=O)[nH]c4=O)C[C@@H]3OP(=O)(O)OC[C@H]3O[C@@H](n4cc(C)c(=O)[nH]c4=O)C[C@@H]3OP(=O)(O)OC[C@H]3O[C@@H](n4cnc5c(=O)[nH]c(N)nc54)C[C@@H]3OP(=O)(O)OC[C@H]3O[C@@H](n4cnc5c(=O)[nH]c(N)nc54)C[C@@H]3O)[C@@H](COP(=O)(O)O[C@H]3C[C@H](n4cc(C)c(=O)[nH]c4=O)O[C@@H]3COP(=O)(O)O[C@H]3C[C@H](n4cnc5c(=O)[nH]c(N)nc54)O[C@@H]3COP(=O)(O)O[C@H]3C[C@H](n4cnc5c(=O)[nH]c(N)nc54)O[C@@H]3COP(=O)(O)O)O2)c(=O)[nH]c1=O | 21.9 s |
| 5.7 °C | Unstable | Cc1cn([C@H]2C[C@H](OP(=O)(O)OC[C@H]3O[C@@H](n4cnc5c(=O)[nH]c(N)nc54)C[C@@H]3OP(=O)(O)OC[C@H]3O[C@@H](n4cnc5c(=O)[nH]c(N)nc54)C[C@@H]3OP(=O)(O)OC[C@H]3O[C@@H](n4cc(C)c(=O)[nH]c4=O)C[C@@H]3OP(=O)(O)OC[C@H]3O[C@@H](n4cnc5c(=O)[nH]c(N)nc54)C[C@@H]3OP(=O)(O)OC[C@H]3O[C@@H](n4cc(C)c(=O)[nH]c4=O)C[C@@H]3OP(=O)(O)OC[C@H]3O[C@@H](n4cnc5c(=O)[nH]c(N)nc54)C[C@@H]3OP(=O)(O)OC[C@H]3O[C@@H](n4cnc5c(=O)[nH]c(N)nc54)C[C@@H]3OP(=O)(O)OC[C@H]3O[C@@H](n4cc(C)c(=O)[nH]c4=O)C[C@@H]3OP(=O)(O)OC[C@H]3O[C@@H](n4cc(C)c(=O)[nH]c4=O)C[C@@H]3OP(=O)(O)OC[C@H]3O[C@@H](n4cnc5c(=O)[nH]c(N)nc54)C[C@@H]3OP(=O)(O)OC[C@H]3O[C@@H](n4cnc5c(=O)[nH]c(N)nc54)C[C@@H]3O)[C@@H](COP(=O)(O)O[C@H]3C[C@H](n4cc(C)c(=O)[nH]c4=O)O[C@@H]3COP(=O)(O)O[C@H]3C[C@H](n4cnc5c(=O)[nH]c(N)nc54)O[C@@H]3COP(=O)(O)O[C@H]3C[C@H](n4c(C(F)(F)F)nc5c(=O)[nH]c(N)nc54)O[C@@H]3COP(=O)(O)O)O2)c(=O)[nH]c1=O | 18.3 s |
